Assay results taken from patent publication US20260167656A1, “PHOSPHORAMIDATE COMPOUNDS AND USES THEREOF” (ALLORION THERAPEUTICS INC, priority 2022, published 2026).

Columns and labels:
[1] = system: non-small cell lung cancer cell line H460; experiment: H460 proliferation assay in the presence of 3 uM ASP9521 (AKR1C3 specific inhibitor); assay type: cell-based, human; settings: H460 cells, CellTiter-Glo, 72 hours, in the presence of 3 uM ASP9521 added 4 hours prior to compounds; read-out: CTG H460: Avg IC50 (nM) [Assay Condition: ASP9521]
Summary of the method: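 AKR1C3 blocked with 3 uM ASP9521 given 4 h ahead of test compounds. H460 cells, plated 24 h earlier, were then treated for 72 h at 37 °C in 5% CO2. CellTiter-Glo luminescence gave viability.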

[2] = system: non-small cell lung cancer cell line H460; experiment: In vitro human cancer cell line cytotoxicity (proliferation) assay in H460, CellTiter-Glo, 72 hours; assay type: cell-based; settings: H460 cells, DMSO condition (no AKR1C3 inhibitor), read-out: CTG H460: Avg IC50 (nM) [Assay Condition: DMSO]
Summary of the method: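 IC50s in nM come from CellTiter-Glo viability read after 72 h of compound exposure. Compounds went in from 10 mM DMSO stocks onto H460 cells, which had been plated at 3×10^3 per well and grown 24 h beforehand at 37 °C, 5% CO2.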

Q: For `O=[N+]([O-])c1ccc2c(c1Oc1cccc(-c3ncccn3)c1)CCC2OP(=O)(N1CC1)N1CC1` (stereo not drawn) [Example 84], which IC50 [1] is on record?
A: 1020 nM

Q: And the IC50 ([2]; Homo sapiens, NCI-H460, 72 h)?
A: 10 to 50 nM

Q: What does the source list for `O=[N+]([O-])c1ccc2c(c1Oc1cccc(-c3ncccn3)c1)CCC2OP(=O)(N1CC1)N1CC1` (stereo not drawn) [Example 85]?
A: IC50 [1]: 5280 nM; IC50 [2]: < 10 nM

Q: Which IC50 [1] does the source give for `O=[N+]([O-])c1ccc2c(c1Oc1cccc(-c3ncc(F)cn3)c1)CCC2OP(=O)(N1CC1)N1CC1` (stereo not drawn) [Example 86] here?
A: 1230 nM

Q: What about the IC50 ([2]; Homo sapiens, NCI-H460, 72 h) of the same compound?
A: 10 to 50 nM

Q: Which results are given for `O=[N+]([O-])c1ccc2c(c1Oc1cccc(-c3ncc(F)cn3)c1)CCC2OP(=O)(N1CC1)N1CC1` (stereo not drawn) [Example 87]?
A: IC50 [1]: 5890 nM; IC50 [2]: 10 to 50 nM

Q: For `Cc1nc(-c2cccc(Oc3c([N+](=O)[O-])ccc4c3CCC4OP(=O)(N3CC3)N3CC3)c2)no1` (stereo not drawn) [Example 88], which IC50 [1] is on record?
A: 3570 nM

Q: What about the IC50 [2] of the same compound?
A: 50 to 100 nM

Q: Which IC50 [1] does the source give for `Cc1nc(-c2cccc(Oc3c([N+](=O)[O-])ccc4c3CCC4OP(=O)(N3CC3)N3CC3)c2)no1` (stereo not drawn) [Example 89] here?
A: 6150 nM

Q: And the IC50 [2]?
A: 10 to 50 nM

Q: Which IC50 [1] does the source give for `O=[N+]([O-])c1ccc2c(c1Oc1cccc(-c3noc(C4CC4)n3)c1)CCC2OP(=O)(N1CC1)N1CC1` (stereo not drawn) [Example 90] here?
A: 9470 nM

Q: What about the IC50 ([2]; Homo sapiens, NCI-H460, 72 h) of the same compound?
A: ≥ 100 nM

Q: Which results are given for `O=[N+]([O-])c1ccc2c(c1Oc1cccc(-c3noc(C4CC4)n3)c1)CCC2OP(=O)(N1CC1)N1CC1` (stereo not drawn) [Example 91]?
A: IC50 [1]: > 10000 nM; IC50 [2]: ≥ 100 nM

Q: For `O=[N+]([O-])c1ccc2c(c1Oc1ccc(-c3ccc(F)cn3)c(F)c1)CCC2OP(=O)(N1CC1)N1CC1` (stereo not drawn) [Example 92], which IC50 [1] is on record?
A: 1420 nM

Q: What about the IC50 [2] of the same compound?
A: < 10 nM

Q: `Cn1c(=O)n(C)c2cc(Oc3c([N+](=O)[O-])ccc4c3CCC4OP(=O)(N3CC3)N3CC3)ccc21` (stereo not drawn) [Example 93] was tested. Which IC50 [1] did it give?
A: 878 nM

Q: What about the IC50 [2] of the same compound?
A: ≥ 100 nM

Q: `Cn1c(=O)n(C)c2cc(Oc3c([N+](=O)[O-])ccc4c3CCC4OP(=O)(N3CC3)N3CC3)ccc21` (stereo not drawn) [Example 94] was tested. Which IC50 [1] did it give?
A: 1450 nM

Q: What about the IC50 [2] of the same compound?
A: 10 to 50 nM

Q: How did the IC50 [1] turn out when `O=[N+]([O-])c1ccc2c(c1Oc1cccc(-c3cnn(C4CC4)c3)c1)CCC2OP(=O)(N1CC1)N1CC1` (stereo not drawn) [Example 95] was run?
A: 1310 nM

Q: And the IC50 [2]?
A: 50 to 100 nM

Q: `O=[N+]([O-])c1ccc2c(c1Oc1cccc(-c3cnn(C4CC4)c3)c1)CCC2OP(=O)(N1CC1)N1CC1` (stereo not drawn) [Example 96] was tested. Which IC50 [1] did it give?
A: 5270 nM

Q: And the IC50 [2]?
A: 10 to 50 nM

Q: What does the source list for `O=C(c1cccc(Oc2c([N+](=O)[O-])ccc3c2CCC3OP(=O)(N2CC2)N2CC2)c1)N1CCC1` (stereo not drawn) [Example 97]?
A: IC50 [1]: 497 nM; IC50 ([2]; Homo sapiens, NCI-H460, 72 h): < 10 nM

Q: How did the IC50 [1] turn out when `O=C(c1cccc(Oc2c([N+](=O)[O-])ccc3c2CCC3OP(=O)(N2CC2)N2CC2)c1)N1CCC1` (stereo not drawn) [Example 98] was run?
A: 205 nM

Q: And the IC50 [2]?
A: < 10 nM

Q: What does the source list for `O=C(c1cccc(Oc2c([N+](=O)[O-])ccc3c2CCC3OP(=O)(N2CC2)N2CC2)c1)N1CCCC1` (stereo not drawn) [Example 99]?
A: IC50 [1]: 1010 nM; IC50 ([2]; Homo sapiens, NCI-H460, 72 h): < 10 nM

Q: What does the source list for `O=C(c1cccc(Oc2c([N+](=O)[O-])ccc3c2CCC3OP(=O)(N2CC2)N2CC2)c1)N1CCCC1` (stereo not drawn) [Example 100]?
A: IC50 [1]: 618 nM; IC50 [2]: < 10 nM

Q: How did the IC50 [1] turn out when `O=C(c1cccc(Oc2c([N+](=O)[O-])ccc3c2CCC3OP(=O)(N2CC2)N2CC2)c1)N1CCC(F)(F)C1` (stereo not drawn) [Example 101] was run?
A: 1210 nM

Q: And the IC50 ([2]; Homo sapiens, NCI-H460, 72 h)?
A: < 10 nM

Q: For `O=C(c1cccc(Oc2c([N+](=O)[O-])ccc3c2CCC3OP(=O)(N2CC2)N2CC2)c1)N1CCC(F)(F)C1` (stereo not drawn) [Example 102], which IC50 [1] is on record?
A: 919 nM

Q: And the IC50 [2]?
A: < 10 nM

Q: How did the IC50 [1] turn out when `O=C(c1cccc(Oc2c([N+](=O)[O-])ccc3c2CCC3OP(=O)(N2CC2)N2CC2)c1)N1CCC(F)(F)CC1` (stereo not drawn) [Example 103] was run?
A: 811 nM

Q: And the IC50 ([2]; Homo sapiens, NCI-H460, 72 h)?
A: < 10 nM

Q: `O=C(c1cccc(Oc2c([N+](=O)[O-])ccc3c2CCC3OP(=O)(N2CC2)N2CC2)c1)N1CCC(F)(F)CC1` (stereo not drawn) [Example 104] was tested. Which IC50 [1] did it give?
A: 180 nM

Q: What about the IC50 [2] of the same compound?
A: < 10 nM

Q: How did the IC50 [1] turn out when `O=C(c1cccc(Oc2c([N+](=O)[O-])ccc3c2CCC3OP(=O)(N2CC2)N2CC2)c1)N1CCCOCC1` (stereo not drawn) [Example 105] was run?
A: 1300 nM

Q: And the IC50 ([2]; Homo sapiens, NCI-H460, 72 h)?
A: 10 to 50 nM

Q: How did the IC50 [1] turn out when `O=C(c1cccc(Oc2c([N+](=O)[O-])ccc3c2CCC3OP(=O)(N2CC2)N2CC2)c1)N1CCCOCC1` (stereo not drawn) [Example 106] was run?
A: 416 nM

Q: What about the IC50 [2] of the same compound?
A: < 10 nM

Q: Which results are given for `O=C1CCCCN1c1cccc(Oc2c([N+](=O)[O-])ccc3c2CCC3OP(=O)(N2CC2)N2CC2)c1` (stereo not drawn) [Example 107]?
A: IC50 [1]: 6500 nM; IC50 ([2]; Homo sapiens, NCI-H460, 72 h): 10 to 50 nM

Q: Which IC50 [1] does the source give for `O=C1CCCCN1c1cccc(Oc2c([N+](=O)[O-])ccc3c2CCC3OP(=O)(N2CC2)N2CC2)c1` (stereo not drawn) [Example 108] here?
A: 1710 nM

Q: What about the IC50 [2] of the same compound?
A: < 10 nM

Q: `O=C1COCCN1c1cccc(Oc2c([N+](=O)[O-])ccc3c2CCC3OP(=O)(N2CC2)N2CC2)c1` (stereo not drawn) [Example 109] was tested. Which IC50 [1] did it give?
A: 6450 nM

Q: What about the IC50 ([2]; Homo sapiens, NCI-H460, 72 h) of the same compound?
A: 10 to 50 nM

Q: With `O=C1COCCN1c1cccc(Oc2c([N+](=O)[O-])ccc3c2CCC3OP(=O)(N2CC2)N2CC2)c1` (stereo not drawn) [Example 110] as the compound, how does the IC50 [1] read?
A: 2420 nM

Q: What about the IC50 [2] of the same compound?
A: < 10 nM

Q: How did the IC50 [1] turn out when `O=C1CCCN1c1cccc(Oc2c([N+](=O)[O-])ccc3c2CCC3OP(=O)(N2CC2)N2CC2)c1` (stereo not drawn) [Example 111] was run?
A: 1100 nM

Q: What about the IC50 ([2]; Homo sapiens, NCI-H460, 72 h) of the same compound?
A: < 10 nM

Q: Which results are given for `O=C1CCCN1c1cccc(Oc2c([N+](=O)[O-])ccc3c2CCC3OP(=O)(N2CC2)N2CC2)c1` (stereo not drawn) [Example 112]?
A: IC50 [1]: 243 nM; IC50 [2]: < 10 nM

Q: How did the IC50 [1] turn out when `O=[N+]([O-])c1ccc2c(c1Oc1cccc(-n3cccn3)c1)CCC2OP(=O)(N1CC1)N1CC1` (stereo not drawn) [Example 113] was run?
A: 650 nM

Q: And the IC50 ([2]; Homo sapiens, NCI-H460, 72 h)?
A: < 10 nM

Q: What does the source list for `O=[N+]([O-])c1ccc2c(c1Oc1cccc(-n3cccn3)c1)CCC2OP(=O)(N1CC1)N1CC1` (stereo not drawn) [Example 114]?
A: IC50 [1]: 1280 nM; IC50 [2]: < 10 nM

Q: With `O=[N+]([O-])c1ccc2c(c1Oc1cccc(-n3ccc(C4CC4)n3)c1)CCC2OP(=O)(N1CC1)N1CC1` (stereo not drawn) [Example 115] as the compound, how does the IC50 [1] read?
A: 4730 nM

Q: And the IC50 ([2]; Homo sapiens, NCI-H460, 72 h)?
A: 10 to 50 nM

Q: Which results are given for `O=[N+]([O-])c1ccc2c(c1Oc1cccc(-n3ccc(C4CC4)n3)c1)CCC2OP(=O)(N1CC1)N1CC1` (stereo not drawn) [Example 116]?
A: IC50 [1]: 5560 nM; IC50 [2]: 10 to 50 nM

Q: How did the IC50 [1] turn out when `Cn1cnc(-c2cccc(Oc3c([N+](=O)[O-])ccc4c3CCC4OP(=O)(N3CC3)N3CC3)c2)cc1=O` (stereo not drawn) [Example 117] was run?
A: 1030 nM

Q: What about the IC50 [2] of the same compound?
A: ≥ 100 nM

Q: Which results are given for `Cn1cnc(-c2cccc(Oc3c([N+](=O)[O-])ccc4c3CCC4OP(=O)(N3CC3)N3CC3)c2)cc1=O` (stereo not drawn) [Example 118]?
A: IC50 [1]: 4510 nM; IC50 [2]: 10 to 50 nM

Q: Which IC50 [1] does the source give for `Cc1noc(-c2cccc(Oc3c([N+](=O)[O-])ccc4c3CCC4OP(=O)(N3CC3)N3CC3)c2)n1` (stereo not drawn) [Example 119] here?
A: 644 nM

Q: What about the IC50 ([2]; Homo sapiens, NCI-H460, 72 h) of the same compound?
A: < 10 nM

Q: What does the source list for `Cc1noc(-c2cccc(Oc3c([N+](=O)[O-])ccc4c3CCC4OP(=O)(N3CC3)N3CC3)c2)n1` (stereo not drawn) [Example 120]?
A: IC50 [1]: 2080 nM; IC50 [2]: < 10 nM

Q: For `Cn1c(=O)oc2cc(Oc3c([N+](=O)[O-])ccc4c3CCC4OP(=O)(N3CC3)N3CC3)ccc21` (stereo not drawn) [Example 121], which IC50 [1] is on record?
A: 33.8 nM

Q: And the IC50 ([2]; Homo sapiens, NCI-H460, 72 h)?
A: < 10 nM

Q: How did the IC50 [1] turn out when `CN1CC(=O)N(c2cccc(Oc3c([N+](=O)[O-])ccc4c3CCC4OP(=O)(N3CC3)N3CC3)c2)CC1=O` (stereo not drawn) [Example 122] was run?
A: 3090 nM

Q: And the IC50 ([2]; Homo sapiens, NCI-H460, 72 h)?
A: 10 to 50 nM

Q: For `O=[N+]([O-])c1ccc2c(c1Oc1cccc(C(F)(F)F)c1)CCC2OP(=O)(N1CC1)N1CC1` (stereo not drawn) [Example 123], which IC50 [1] is on record?
A: 572 nM

Q: And the IC50 ([2]; Homo sapiens, NCI-H460, 72 h)?
A: < 10 nM

Q: With `O=[N+]([O-])c1ccc2c(c1Oc1cccc(OC(F)(F)F)c1)CCC2OP(=O)(N1CC1)N1CC1` (stereo not drawn) [Example 124] as the compound, how does the IC50 [1] read?
A: 547 nM

Q: What about the IC50 ([2]; Homo sapiens, NCI-H460, 72 h) of the same compound?
A: < 10 nM

Q: `O=[N+]([O-])c1ccc2c(c1Oc1ccccc1)OCCC2OP(=O)(N1CC1)N1CC1` (stereo not drawn) [Example 127, 7-nitro-8-phenoxy-3,4-dihydro-2H-1-benzopyran-4-yl bis(aziridin-1-yl)phosphinate] was tested. Which IC50 [1] did it give?
A: 291 nM

Q: And the IC50 ([2]; Homo sapiens, NCI-H460, 72 h)?
A: 10 to 50 nM
